# In publication PMC8240349 (Journal of Traditional and Complementary Medicine, 2021):
# Where two headings read alike, the source gives them in different places. Marks after values point to notes of the source that are not given here.
# Format: in vivo, human
# Details: for AUC0-∞ / CL/F / Cmax / K01 / Vz/F / k10 / t1/2a / t1/2z / tlag / tmax / K10: median (range)
# [1] = group 1, single 1,000 mg AL, all
# [2] = group 1, single 1,000 mg AL, female
# [3] = group 1, single 1,000 mg AL, male
# [4] = group 2, daily 1,000 mg AL, day 1, all
# [5] = group 2, daily 1,000 mg AL, day 1, female
# [6] = group 2, daily 1,000 mg AL, day 1, male
# [7] = group 2, daily 1,000 mg AL, day 21, all
# [8] = group 2, daily 1,000 mg AL, day 21, female
# [9] = group 2, daily 1,000 mg AL, day 21, male
smiles,measurement,setting,value
C/C=C/C#CC#C/C=C/c1ccco1 [atractylodin],AUC0-∞,[1],105.07 (65.93–168.90) ng.h/ml
same,CL/F,[1],7.28 (4.78–15.62) l/kg/h
same,Cmax,[1],29.1 (17.1–42.51) ng/ml
same,K01,[1],0.68 (0.43–1.00) /h
same,Vz/F,[1],10.18 (6.85–19.53) L/kg
same,k10,[1],0.71 (0.44–1.71) /h
same,t1/2a,[1],0.97 (0.41–1.58) h
same,t1/2z,[1],0.88 (0.37–1.74) h
same,tlag,[1],0.13 (0.0–0.5) h
same,tmax,[1],1.41 (0.94–2.3) h
same,AUC0-∞,[2],108.19 (65.93–186.59) ng.h/ml
same,CL/F,[2],8.06 (4.80–15.62) l/kg/h
same,Cmax,[2],31.04 (19.29–49.21) ng/ml
same,K01,[2],0.75 (0.59–1.48) /h
same,K10,[2],0.76 (0.59–1.16) /h
same,Vz/F,[2],11.81 (5.65–19.53) l/kg
same,t1/2a,[2],0.92 (0.47–1.19) h
same,t1/2z,[2],0.92 (0.47–1.19) h
same,tlag,[2],0.0 (0.0–0.25) h
same,tmax,[2],1.33 (0.89–1.70) h
same,AUC0-∞,[3],118.85 (74.25–189.98) ng.h/ml
same,CL/F,[3],6.35 (3.34–10.33) l/kg/h
same,Cmax,[3],31.05 (17.86–51.36) ng/ml
same,K01,[3],0.68 (0.44–0.95) /h
same,K10,[3],0.67 (0.43–0.96) /h
same,Vz/F,[3],8.41 (5.14–18.70) l/kg
same,t1/2a,[3],1.02 (0.73–1.58) h
same,t1/2z,[3],1.02 (0.73–1.57) h
same,tlag,[3],0.25 (0–0.5) h
same,tmax,[3],1.48 (1.05–2.29) h
same,AUC0-∞,[4],103.7 (16.5–315.4) ng.h/ml
same,CL/F,[4],8.11 (2.73–40.75) l/kg/h
same,Cmax,[4],32.11 (4.9–117.8) ng/ml
same,K01,[4],0.83 (0.43–22.67) /h
same,Vz/F,[4],12.74 (2.687–47.03) L/kg
same,k10,[4],0.71 (0.43–1.25) /h
same,t1/2a,[4],0.84 (0.03–1.63) h
same,t1/2z,[4],0.84 (0.03–1.63) h
same,tlag,[4],0 (0–0.5) h
same,tmax,[4],1.18 (0.17–2.34) h
same,AUC0-∞,[5],130.62 (52.04–315.40) ng.h/ml
same,CL/F,[5],6.50 (2.73–14.76) l/kg/h
same,Cmax,[5],42.26 (8.41–117.80) ng/ml
same,K01,[5],0.96 (0.43–22.67) /h
same,K10,[5],0.63 (0.43–1.19) /h
same,Vz/F,[5],10.09 (2.68–33.56) l/kg
same,t1/2a,[5],0.73 (0.03–1.63) h
same,t1/2z,[5],0.73 (0.03–1.63) h
same,tmax,[5],1.11 (0.17–2.34) h
same,AUC0-∞,[6],91.88 (16.5–109.93) ^b ng.h/ml
same,CL/F,[6],8.75 (5.8–40.75) l/kg/h
same,Cmax,[6],23.77 (4.97–49.75) ^a ng/ml
same,K01,[6],0.78 (0.57–1.89) /h
same,K10,[6],0.72 (0.24–1.25) /h
same,Vz/F,[6],15.52 (6.43–47.03) l/kg
same,t1/2a,[6],0.89 (0.37–1.21) h
same,t1/2z,[6],0.89 (0.37–1.21) h
same,tlag,[6],0.0 (0.0–0.5) h
same,tmax,[6],1.25 (0.81–1.73) h
same,AUC0-∞,[7],123.18 (49.22–419.61) ng.h/ml
same,CL/F,[7],7.10 (1.83–14.67) l/kg/h
same,Cmax,[7],31.84 (9.38–97.64) ng/ml
same,K01,[7],0.74 (0.10–1.92) /h
same,Vz/F,[7],9.66 (0.47–26.32) L/kg
same,k10,[7],0.73 (0.11–15.31) /h
same,t1/2a,[7],0.94 (0.36–6.61) h
same,t1/2z,[7],0.94 (0.05–6.49) h
same,tlag,[7],0 (0–0.5) h
same,tmax,[7],1.32 (0.24–9.44) h
same,AUC0-∞,[8],144.4 (69.1–420.3) ng.h/ml
same,CL/F,[8],5.91 (1.83–11.11) l/kg/h
same,Cmax,[8],39.49 (11.40–91.24) ng/ml
same,K01,[8],0.72 (0.11–1.92) /h
same,K10,[8],0.74 (0.11–15.31) /h
same,Vz/F,[8],8.18 (0.47–25.06) l/kg
same,t1/2a,[8],0.97 (0.36–6.61) h
same,t1/2z,[8],0.94 (0.05–6.49) h
same,tlag,[8],0 (0–0.5) h
same,tmax,[8],1.36 (0.24–9.45) h
same,AUC0-∞,[9],87.18 (49.22–292.77) ^c ng.h/ml
same,CL/F,[9],8.16 (2.70–14.67) ^d l/kg/h
same,Cmax,[9],26.03 (9.39–97.64) ng/ml
same,K01,[9],0.83 (0.52–1.57) /h
same,K10,[9],0.71 (0.42–0.99) /h
same,Vz/F,[9],13.32 (3.05–26.32) l/kg
same,t1/2a,[9],0.84 (0.44–1.34) h
same,t1/2z,[9],0.99 (0.70–1.67) h
same,tlag,[9],0 (0.0–0.0) h
same,tmax,[9],1.24 (1.0–1.94) h
same,Cmax by model-dependent analysis compared with model-independent analysis,in vivo,60–70%
